Measured values reported in US20060223996A1, “IL-12 modulatory compounds” (Synta Pharmaceuticals Corp., priority 2004, published 2006).
pIC50: −log10 of the molar value.

Test system: IL-12
Experiment: Human in vitro assay: inhibition of IL-12 production in IFNγ/LPS- or IFNγ/SAC-stimulated human PBMC or THP-1 cells (ELISA)
Format: cell-based
Conditions: read-out: IC50 Range (representative in vitro IC50 data)
Description: The biological activities of a heterocyclic compound can be evaluated by a number of cell-based assays. One of such assays can be conducted using cells from human peripheral blood mononuclear cells (PBMC) or human monocytic cell line (THP-1). The cells are stimulated with a combination of human interferon-γ (IFNγ) and lipopolysaccharide or a combination of IFNγ and Staphylococcus aureus Cowan I in the presence of a test compound. The level of inhibition of IL-12 production can be measured by determining the amount of p70 by using a sandwich ELISA assay with anti-human IL-12 antibodies. IC50 of the test compound can then be determined. Specifically, PBMC or THP-1 cells are incubated with the test compound. Cell viability was assessed using the bioreduction of MTS [3-(4,5-dimethylthiazol-2-yl)-5-(3-carboxymethoxyphenyl)-2-(4-sulfophenyl)-2H-tetrazolium](Promega, Madison, Wis.).
Human In Vitro Assay. Human PBMC were isolated by centrifugation using Ficoll-Paque (Pharmacia Biotech, Uppsala, Sweden) and prepared in RPMI medium supplemented with 10% fetal calf serum (FCS), 100 U/mL penicillin, and 100 μg/mL streptomycin. PBMC were plated in wells of a 96-well plate at a concentration of 5×10^5 cells/well, and primed by adding IFNγ (30 U/mL) for 22 h and stimulated by adding LPS (1 μg/mL), or by adding IFNγ (100 U/mL) and then stimulated by adding SAC (0.01%). A test pyrimidine compound was dissolved in DMSO, and added to wells of the 96-well plate. The final DMSO concentration was adjusted to 0.25% in all cultures, including the compound-free control. Human THP-1 cells were plated in wells, primed by adding IFNγ (100 U/mL) for 22 h and stimulated by adding SAC (0.025%) in the presence of different concentrations of the pyrimidine compound. Cell-free supernatants were taken 18 h later for measurement of cytokines. Cell viability was assessed using the bioreduction of MTS. Cell survival was estimated by determining the ratio of the absorbance in compound-treated groups versus compound-free control.
The supernatant was assayed for the amount of IL-12p40, IL-12p70, or IL-10 by using a sandwich ELISA with anti-human antibodies, i.e., a Human IL-12 p40 ELISA kit from R&D Systems (Berkeley, Calif.), and a Human IL-12 p70 or IL-10 ELISA kit from Endogen (Cambridge, Mass.). Assays were based on the manufacturer's instructions.
The biological activities of pyrimidine compounds were tested on human PBMC or THP-1 cells.

| SMILES | pIC50 |
| --- | --- |
| NC(=O)c1cccc(NC(=O)c2cc(OCCN3CCOC3=O)nc(N3CCOCC3)n2)c1 [Compound 43, 2-Morpholin-4-yl-6-[2-(2-oxo-oxazolidin-3-yl)-ethoxy]-pyrimidine-4-carboxylic acid (3-carbamoyl-phenyl)-amide] | ≤ 6.00 |
| Cc1cc(NC(=O)c2cc(OCCN3CCOCC3)nc(N3CCOCC3)n2)no1 [Compound 48, 2-Morpholin-4-yl-6-(2-morpholin-4-yl-ethoxy)-pyrimidine-4-carboxylic acid (5-methyl-isoxazol-3-yl)-amide] | ≤ 6.00 |
| NS(=O)(=O)c1cccc(NC(=O)c2cc(OCCN3CCOCC3)nc(N3CCOCC3)n2)c1 [Compound 50, 2-Morpholin-4-yl-6-(2-morpholin-4-yl-ethoxy)-pyrimidine-4-carboxylic acid (3-sulfamoyl-phenyl)-amide] | ≤ 6.00 |
| Cc1ccc(NC(=O)c2cc(N3CCOCC3)nc(N3CCOCC3)n2)cc1C [Compound 51, 2,6-Di-morpholin-4-yl-pyrimidine-4-carboxylic acid (3,4-dimethyl-phenyl)-amide] | > 6.00 |
| NC(=O)c1cccc(NC(=O)c2cc(N3CCOCC3)nc(N3CCOCC3)n2)c1 [Compound 52, 2,6-Di-morpholin-4-yl-pyrimidine-4-carboxylic acid (3-carbamoyl-phenyl)-amide] | ≤ 6.00 |
| CN(C)C(=O)c1cccc(NC(=O)c2cc(OCCN3CCOCC3)nc(N3CCOCC3)n2)c1 [Compound 53, 2-Morpholin-4-yl-6-(2-morpholin-4-yl-ethoxy)-pyrimidine-4-carboxylic acid (3-dimethylcarbamoyl-phenyl)-amide] | ≤ 6.00 |
| O=C(c1cc(OCCN2CCOCC2)nc(N2CCOCC2)n1)n1ccc2ccccc21 [Compound 54, Indol-1-yl-[2-morpholin-4-yl-6-(2-morpholin-4-yl-ethoxy)-pyrimidin-4-yl]-methanone] | ≤ 6.00 |
| Cc1cccc(NC(=O)c2cc(OCCN3CCOCC3)nc(N3CCOCC3)n2)c1 [Compound 56, 2-Morpholin-4-yl-6-(2-morpholin-4-yl-ethoxy)-pyrimidine-4-carboxylic acid m-tolylamide] | ≤ 6.00 |

The next lines start with the values.

| pIC50 | SMILES |
| --- | --- |
| ≤ 6.00 | Cc1[nH]c2ccc(NC(=O)c3cc(OCCN4CCCCC4)nc(N4CCOCC4)n3)cc2c1C [Compound 42, 2-Morpholin-4-yl-6-(2-piperidin-1-yl-ethoxy)-pyrimidine-4-carboxylic acid (2,3-dimethyl-1H-indol-5-yl)-amide] |
| ≤ 6.00 | Cc1cccc(NC(=O)c2cc(OCCN3CCOC3=O)nc(N3CCOCC3)n2)c1 [Compound 44, 2-Morpholin-4-yl-6-[2-(2-oxo-oxazolidin-3-yl)-ethoxy]-pyrimidine-4-carboxylic acid m-tolylamide] |
| ≤ 6.00 | O=C(Nc1cc(-c2cccs2)[nH]n1)c1cc(OCCN2CCOCC2)nc(N2CCOCC2)n1 [Compound 45, 2-Morpholin-4-yl-6-(2-morpholin-4-yl-ethoxy)-pyrimidine-4-carboxylic acid (5-thiophen-2-yl-1H-pyrazol-3-yl)-amide] |
| ≤ 6.00 | CCc1cccc(NC(=O)c2cc(OCCN3CCOCC3)nc(N3CCOCC3)n2)c1 [Compound 46, 2-Morpholin-4-yl-6-(2-morpholin-4-yl-ethoxy)-pyrimidine-4-carboxylic acid (3-ethyl-phenyl)-amide] |
| ≤ 6.00 | O=C(Nc1cccc(Br)c1)c1cc(OCCN2CCOCC2)nc(N2CCOCC2)n1 [Compound 47, 2-Morpholin-4-yl-6-(2-morpholin-4-yl-ethoxy)-pyrimidine-4-carboxylic acid (3-bromo-phenyl)-amide] |
| ≤ 6.00 | CC(=O)Nc1ccccc1NC(=O)c1cc(OCCN2CCOCC2)nc(N2CCOCC2)n1 [Compound 49, 2-Morpholin-4-yl-6-(2-morpholin-4-yl-ethoxy)-pyrimidine-4-carboxylic acid (2-acetylamino-phenyl)-amide] |
| ≤ 6.00 | CN(C)c1ccc(NC(=O)c2cc(OCCN3CCOCC3)nc(N3CCOCC3)n2)cc1 [Compound 57, 2-Morpholin-4-yl-6-(2-morpholin-4-yl-ethoxy)-pyrimidine-4-carboxylic acid (4-dimethylamino-phenyl)-amide] |
